Laboratory results taken from patent publication US10738071B2, “Polymorphic forms of sofosbuvir” (Mylan Laboratories Limited, priority 2016, dated 2020).

Assay: physical and chemical stability of sofosbuvir form-M3 on storage (water content, PXRD, HPLC purity)
Type: physicochemical
Method: The crystalline sofosbuvir form-M3 disclosed herein may be characterized by X-ray powder diffraction. Therefore, samples of crystalline sofosbuvir form-M3 were analyzed on a PANalytical, X'pert PRO powder diffractometer equipped with goniometer of θ/θ configuration and X'Celerator detector. The Cu-anode X-ray tube was operated at 40 kV and 30 mA. The experiments were conducted over the 2θ range of 2.0°-50.0°, 0.030° step size and 50 seconds step time.
Water content was determined on an 841 Titrando Karl-Fischer titrator (Metrohm) by placing 40 mL dehydrated methanol in the titration vessel and titrating with a standardized reagent to reach the electrometric endpoint. A sample (e.g., 0.20 g sofosbuvir form-M3) was added, the mixture was stirred for 1 minute, then titrated to the endpoint with a Karl-Fischer reagent. For each determination, fresh methanol was used. The following calculations may be used to determine water content of each sample:
The physical and chemical stability of sofosbuvir form-M3 was determined by storing the samples at 25±2° C./60±5% relative humidity (RH) and at 40±2° C./75±5% RH for 6 months. The samples were tested to determine water content, detect degradation crystalline form by PXRD analysis, and measure purity by HPLC analysis. HPLC analysis was performed by the parameters listed below:
Chromatographic Conditions:
Injection volume: 20.0 μL
Column oven temperature: 45° C.
Sample temperature: 10° C.
Acquisition time: 25 minutes
Water: Acetonitrile (80:20) % v/v
As an example, Table 1 below discloses data collected on sofosbuvir form-M3 under various storage conditions.

[1] = stored at 25 ± 2° C./60 ± 5% RH, 1 months
[2] = stored at 25 ± 2° C./60 ± 5% RH, 2 months
[3] = stored at 25 ± 2° C./60 ± 5% RH, 3 months
[4] = stored at 25 ± 2° C./60 ± 5% RH, 6 months
[5] = stored at 25 ± 2° C./60 ± 5% RH, Initial
[6] = stored at 40 ± 2° C./75 ± 5% RH, 1 months
[7] = stored at 40 ± 2° C./75 ± 5% RH, 2 months
[8] = stored at 40 ± 2° C./75 ± 5% RH, 3 months
[9] = stored at 40 ± 2° C./75 ± 5% RH, 6 months
[10] = stored at 40 ± 2° C./75 ± 5% RH, Initial
[11] = up to six months at 25±2° C./60±5% RH and at 40±2° C./75±5% RH

For `CC(C)OC(=O)[C@H](C)N[P@](=O)(OC[C@H]1O[C@@H](n2ccc(=O)[nH]c2=O)[C@](C)(F)[C@@H]1O)Oc1ccccc1` [sofosbuvir form-M3, (S)-isopropyl 2-((S)-(((2R,3R,4R,5R)-5-(2,4-dioxo3,4-dihydropyrimidin-1(2H)-yl)-4-fluoro-3-hydroxy-4-methyltetrahydrofuran-2yl)methoxy)-(phenoxy)phosphorylamino)propanoate], the “HPLC Purity” value [1] was 99.90%, the PXRD [1] was “form-M3” and the Water content [1] was 3.39%. The “HPLC Purity” value [2] was 99.90%, the PXRD [2] was “form-M3” and the Water content [2] was 3.45%. For the same compound, the “HPLC Purity” value [3] was 99.89%, the PXRD [3] was “form-M3” and the Water content [3] was 3.35%. The “HPLC Purity” value [4] was 99.92%, the PXRD [4] was “form-M3” and the Water content [4] was 3.34%. The “HPLC Purity” value [5] was 99.92%, the PXRD [5] was “form-M3” and the Water content [5] was 3.59%. The “HPLC Purity” value [6] was 99.90%, the PXRD [6] was “form-M3” and the Water content [6] was 3.55%. For the same compound, the “HPLC Purity” value [7] was 99.90%, the PXRD [7] was “form-M3” and the Water content [7] was 3.33%. The “HPLC Purity” value [8] was 99.89%, the PXRD [8] was “form-M3” and the Water content [8] was 3.19%. The “HPLC Purity” value [9] was 99.91%, the PXRD [9] was “form-M3” and the Water content [9] was 3.00%. The “HPLC Purity” value [10] was 99.92%, the PXRD [10] was “form-M3” and the Water content [10] was 3.59%. For the same compound, the “change in PXRD pattern on storage” value [11] was “no significant change in PXRD pattern”, the “change in moisture content on storage” value [11] was “no significant change in moisture content” and the “change in purity on storage” value [11] was “no significant change in purity”.
